# Laboratory results reported in patent publication US20250197387A1, “BCL-XL DEGRADERS AND USES THEREOF” (Kymera Therapeutics, Inc., priority 2021, published 2025).
# Like-named read-outs stand apart in the source and are kept apart here.
# Columns and labels:
# Assay type in all cases: cell-based
# MOLT-4 cells = experiment: CTG (CellTiter-Glo) cell viability assay, MOLT-4; conditions: Homo sapiens, 3 day incubation, read-out: CTG Cell Viability Assay - MOLT-4 3 day: Average external-IC50
# Method in brief: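 10,000 cells/well; 9 doses, 1:3 from 10 μM top; 0.2% DMSO; 3 d, 37 °C, 5% CO2; CTG luminescence; IC50 via 3-parameter logistic fit. Letter bins differ: Caki-2 C/D cut at 10.0 μM, MOLT-4 at 3.0 μM.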
# BCL-XL [1] = target: T1, BCL-XL (Homo sapiens, UniProt Q07817); experiment: BCL-XL degradation assay, western blot in MOLT-4 cells, 16 h; conditions: for DC50: read-out: Bcl-xL WB in MOLT-4 degradation 16 h: Mean external-Abs DC50
# T1 construct: endogenous in cells; host or cells: MOLT-4
# T1 sequence (Q07817 whole entry): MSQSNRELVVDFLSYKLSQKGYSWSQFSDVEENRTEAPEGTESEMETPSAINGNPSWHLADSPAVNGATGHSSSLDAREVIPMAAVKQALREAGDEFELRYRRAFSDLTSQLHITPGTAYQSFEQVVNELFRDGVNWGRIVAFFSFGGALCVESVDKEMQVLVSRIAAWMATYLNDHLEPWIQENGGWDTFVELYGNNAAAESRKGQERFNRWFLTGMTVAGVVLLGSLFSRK
# Method in brief: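 Infrared-imaged western blots quantified BCL-xL (normalised against beta-actin/GAPDH) after 16 hr, 37° C exposure of MOLT-4 cells to 0.02-10 μM compound; results given as DC50 and Dmax % bins.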
# BCL-XL [2] = target: T1, BCL-XL; experiment: Bcl-xL ELISA degradation in MOLT-4 cells, 6 h; conditions: for DC50: read-out: Bcl-xL ELISA in MOLT-4 degradation 6 h: Mean external-Abs DC50
# Protocol: The letter codes for BCL-XL DC50 include: A (<0.01 μM); B (0.01-0.1 μM); C (>[…]); D (>0.5-1.0 μM); and E (>1.0 μM). The letter codes for Dmax % include A (>75%); B (50 to 75%); C (<50%).
# [3] = western blot, MOLT-4 cells, 16 h, read-out: Bcl-xL WB in MOLT-4 degradation 16 h: Average Dmax %
# [4] = western blot, MOLT-4 cells, 16 h
SMILES,"IC50 (MOLT-4 cells; MOLT-4, 72 h)",Dmax (BCL-XL [1]; [3]),DC50 (BCL-XL [1]; [4]),Dmax (BCL-XL [2]),DC50 (BCL-XL [2]),IC50 (MOLT-4 cells; 72 h),"Dmax (BCL-XL [1]; MOLT-4, read-out: Bcl-xL WB in MOLT-4 degradation 16 h: Average Dmax %)"
Cc1ncsc1-c1ccc([C@H](C)NC(=O)[C@@H]2C[C@@H](O)CN2C(=O)[C@@H](NC(=O)N2CC3(CN(CCCS(=O)(=O)NC(=O)c4nc(N5CCc6cccc(C(=O)Nc7nc8ccccc8s7)c6C5)ccc4-c4cnn(CC5CCCCC5)c4C)C3)C2)C(C)(C)C)cc1 [I-151],1000 to 3000 nM,< 50%,100 to 500 nM,,,,
Cc1ncsc1-c1ccc(CNC(=O)[C@@H]2C[C@@H](O)CN2C(=O)[C@@H](c2cc(OCCCCCCCCC(=O)N(C)CC#Cc3ccc(OCCCc4ccc(N5CCc6cccc(C(=O)Nc7nc8ccccc8s7)c6C5)nc4C(=O)O)c(F)c3)no2)C(C)C)cc1 [I-171],1000 to 3000 nM,50 to 75%,100 to 500 nM,,,,
Cc1ncsc1-c1ccc([C@H](C)NC(=O)[C@@H]2C[C@@H](O)CN2C(=O)[C@H](c2cc(OC3CCN(CCCS(=O)(=O)NC(=O)c4nc(N5CCc6cccc(C(=O)Nc7nc8ccccc8s7)c6C5)ccc4-c4cnn(CC5CCCCC5)c4C)CC3)no2)C(C)C)cc1 [I-174],1000 to 3000 nM,< 50%,> 1000 nM,,,,
Cc1ncsc1-c1ccc([C@H](C)NC(=O)[C@@H]2C[C@@H](O)CN2C(=O)[C@@H](NC(=O)CN2CC(N3CCC(NC(=O)c4nc(N5CCc6cccc(C(=O)Nc7nc8ccccc8s7)c6C5)ccc4-c4cnn(CC5CCCCC5)c4C)CC3)C2)C(C)(C)C)cc1 [I-176],,,10 to 100 nM,50 to 75%,100 to 500 nM,100 to 1000 nM,> 75%
Cc1ncsc1-c1ccc(CNC(=O)[C@@H]2C[C@@H](O)CN2C(=O)[C@@H](c2cc(N3CC4(CN(CCCC(=O)N(C)CC#Cc5ccc(OCCCc6ccc(N7CCc8cccc(C(=O)Nc9nc%10ccccc%10s9)c8C7)nc6C(=O)O)c(F)c5)C4)C3)no2)C(C)C)cc1 [I-180],> 3000 nM,< 50%,> 1000 nM,,,,
Cc1cc(N(C)c2ccc(-c3cnn(CC4CCCCC4)c3C)c(C(=O)NS(=O)(=O)CCCCCOc3cc(-c4scnc4C)ccc3CNC(=O)[C@@H]3C[C@@H](O)CN3C(=O)[C@@H](NC(=O)C3(F)CC3)C(C)(C)C)n2)nnc1Nc1nc2ccccc2s1 [I-188],> 3000 nM,50 to 75%,> 1000 nM,,,,
Cc1ncsc1-c1ccc(CNC(=O)[C@@H]2C[C@@H](O)CN2C(=O)[C@@H](NC(=O)C2(F)CC2)C(C)(C)C)c(OCCN2CCC(NC(=O)c3nc(N4CCc5cccc(C(=O)Nc6nc7ccccc7s6)c5C4)ccc3-c3cnn(CC4CCCCC4)c3C)CC2)c1 [I-191],100 to 1000 nM,50 to 75%,100 to 500 nM,,,,
Cc1ncsc1-c1ccc(CNC(=O)[C@@H]2C[C@@H](O)CN2C(=O)[C@@H](c2cc(N3CC4(CN(C(=O)CCCCC(=O)N(C)CC#Cc5ccc(OCCCc6ccc(N7CCc8cccc(C(=O)Nc9nc%10ccccc%10s9)c8C7)nc6C(=O)O)c(F)c5)C4)C3)no2)C(C)C)cc1 [I-193],100 to 1000 nM,> 75%,10 to 100 nM,,,,
Cc1ncsc1-c1ccc(CNC(=O)[C@@H]2C[C@@H](O)CN2C(=O)[C@@H](NC(=O)C2(F)CC2)C(C)(C)C)c(OCCCNC(=O)c2nc(N3CCc4cccc(C(=O)Nc5nc6ccccc6s5)c4C3)ccc2-c2cnn(CC3CCCCC3)c2C)c1 [I-200],100 to 1000 nM,50 to 75%,100 to 500 nM,,,,
Cc1cc(N(C)c2ccc(-c3cnn(CC4CCCCC4)c3C)c(C(=O)NCCCCCCOc3cc(-c4scnc4C)ccc3CNC(=O)[C@@H]3C[C@@H](O)CN3C(=O)[C@@H](NC(=O)C3(F)CC3)C(C)(C)C)n2)nnc1Nc1nc2ccccc2s1 [I-203],100 to 1000 nM,< 50%,> 1000 nM,,,,
Cc1ncsc1-c1ccc([C@H](C)NC(=O)[C@@H]2C[C@@H](O)CN2C(=O)[C@H](c2cc(N3CCN(c4ccc(S(=O)(=O)NC(=O)c5nc(N6CCc7cccc(C(=O)Nc8nc9ccccc9s8)c7C6)ccc5-c5cnn(CC6CCCCC6)c5C)cc4)CC3)no2)C(C)C)cc1 [I-213],1000 to 3000 nM,50 to 75%,100 to 500 nM,,,,
Cc1ncsc1-c1ccc([C@H](C)NC(=O)[C@@H]2C[C@@H](O)CN2C(=O)[C@@H](NC(=O)CCCCCC(=O)N2CCN(CC[C@H](CSc3ccccc3)Nc3ccc(S(=O)(=O)NC(=O)c4ccc(N5CCC(C)(C)CC5)cc4)cc3S(=O)(=O)C(F)(F)F)CC2)C(C)(C)C)cc1 [I-392],> 3000 nM,< 50%,> 1000 nM,,,,
Cc1ncsc1-c1ccc([C@H](C)NC(=O)[C@@H]2C[C@@H](O)CN2C(=O)[C@@H](NC(=O)CCCCCCC(=O)N2CCN(CC3(C)CCC(c4ccc(Cl)cc4)=C(CN4CCN(c5ccc(C(=O)NS(=O)(=O)c6ccc(NCC78CC9CC(CC(O)(C9)C7)C8)c(S(=O)(=O)C(F)(F)F)c6)cc5)CC4)C3)CC2)C(C)(C)C)cc1 (stereo partly drawn) [I-398],> 3000 nM,< 50%,> 1000 nM,,,,

# Continued, in another order:
"IC50 (MOLT-4 cells; MOLT-4, 72 h)",Dmax (BCL-XL [1]; [3]),DC50 (BCL-XL [1]; [4]),Dmax (BCL-XL [2]),DC50 (BCL-XL [2]),SMILES,IC50 (MOLT-4 cells; 72 h),"Dmax (BCL-XL [1]; MOLT-4, read-out: Bcl-xL WB in MOLT-4 degradation 16 h: Average Dmax %)"
100 to 1000 nM,> 75%,10 to 100 nM,50 to 75%,10 to 100 nM,Cc1ncsc1-c1ccc(CNC(=O)[C@@H]2C[C@@H](O)CN2C(=O)[C@@H](NC(=O)C2(F)CC2)C(C)(C)C)c(OCC(=O)N2CCN(CC#Cc3ccc(OCCCc4sc(N5CCc6cccc(C(=O)Nc7nc8ccccc8s7)c6C5)nc4C(=O)O)c(F)c3)CC2)c1 [I-170],,
100 to 1000 nM,> 75%,< 10 nM,50 to 75%,10 to 100 nM,Cc1ncsc1-c1ccc(CNC(=O)[C@@H]2C[C@@H](O)CN2C(=O)[C@H](c2cc(OCCCCCCCCC(=O)N(C)CC#Cc3ccc(OCCCc4ccc(N5CCc6cccc(C(=O)Nc7nc8ccccc8s7)c6C5)nc4C(=O)O)c(F)c3)no2)C(C)C)cc1 [I-172],,
100 to 1000 nM,50 to 75%,> 1000 nM,,,Cc1ncsc1-c1ccc(CNC(=O)[C@@H]2C[C@@H](O)CN2C(=O)[C@@H](NC(=O)C2(F)CC2)C(C)(C)C)c(OCC(=O)N2CCN(CCCC3(Cn4ncc(-c5ccc(N6CCc7cccc(C(=O)Nc8nc9ccccc9s8)c7C6)nc5C(=O)O)c4C)CCCCC3)CC2)c1 [I-173],,
100 to 1000 nM,< 50%,> 1000 nM,,,Cc1ncsc1-c1ccc([C@H](C)NC(=O)[C@@H]2C[C@@H](O)CN2C(=O)C(c2cc(OCC3CCN(CCNC(=O)c4nc(N5CCc6cccc(C(=O)Nc7nc8ccccc8s7)c6C5)ccc4-c4cnn(CC5CCCCC5)c4C)CC3)no2)C(C)C)cc1 (stereo partly drawn) [I-175],,
100 to 1000 nM,> 75%,< 10 nM,50 to 75%,10 to 100 nM,Cc1ncsc1-c1ccc(CNC(=O)[C@@H]2C[C@@H](O)CN2C(=O)[C@H](c2cc(N3CC4(CN(CCCC(=O)N(C)CC#Cc5ccc(OCCCc6ccc(N7CCc8cccc(C(=O)Nc9nc%10ccccc%10s9)c8C7)nc6C(=O)O)c(F)c5)C4)C3)no2)C(C)C)cc1 [I-181],,
100 to 1000 nM,> 75%,10 to 100 nM,50 to 75%,100 to 500 nM,Cc1ncsc1-c1ccc([C@H](C)NC(=O)[C@@H]2C[C@@H](O)CN2C(=O)[C@@H](NC(=O)CO[C@H]2C[C@H](OCCNC(=O)c3nc(N4CCc5cccc(C(=O)Nc6nc7ccccc7s6)c5C4)ccc3-c3cnn(CC4CCCCC4)c3C)C2)C(C)(C)C)cc1 [I-182],,
100 to 1000 nM,> 75%,10 to 100 nM,50 to 75%,100 to 500 nM,Cc1ncsc1-c1ccc(CNC(=O)[C@@H]2C[C@@H](O)CN2C(=O)[C@@H](NC(=O)C2(F)CC2)C(C)(C)C)c(OCCCN(C)CC[C@H](CSc2ccccc2)Nc2ccc(S(=O)(=O)NC(=O)c3ccc(N4CCN(CC5=C(c6ccc(Cl)cc6)CCC(C)(C)C5)CC4)cc3)cc2S(=O)(=O)C(F)(F)F)c1 [I-184],,
100 to 1000 nM,> 75%,10 to 100 nM,50 to 75%,10 to 100 nM,Cc1ncsc1-c1ccc([C@H](C)NC(=O)[C@@H]2C[C@@H](O)CN2C(=O)[C@@H](NC(=O)CCCCCCN(C)C(=O)c2nc(N3CCc4cccc(C(=O)Nc5nc6ccccc6s5)c4C3)ccc2-c2cnn(CC3CCCCC3)c2C)C(C)(C)C)cc1 [I-185],,
100 to 1000 nM,> 75%,10 to 100 nM,50 to 75%,10 to 100 nM,C#Cc1ccc([C@H](CO)NC(=O)[C@@H]2C[C@@H](O)CN2C(=O)[C@@H](NC(=O)CCc2ccc(S(=O)(=O)NC(=O)c3nc(N(C)c4cc(C)c(Nc5nc6ccccc6s5)nn4)ccc3-c3cnn(CC4CCCCC4)c3C)cc2)C(C)(C)C)cc1 [I-186],,
100 to 1000 nM,> 75%,10 to 100 nM,50 to 75%,10 to 100 nM,Cc1ncsc1-c1ccc(CNC(=O)[C@@H]2C[C@@H](O)CN2C(=O)[C@@H](NC(=O)C2(F)CC2)C(C)(C)C)c(OCCN2CCC(CS(=O)(=O)NC(=O)c3nc(N4CCc5cccc(C(=O)Nc6nc7ccccc7s6)c5C4)ccc3-c3cnn(CC4CCCCC4)c3C)CC2)c1 [I-189],,
100 to 1000 nM,50 to 75%,500 to 1000 nM,,,Cc1ncsc1-c1ccc(CNC(=O)[C@@H]2C[C@@H](O)CN2C(=O)[C@@H](NC(=O)C2(F)CC2)C(C)(C)C)c(OCCCCNC(=O)c2nc(N3CCc4cccc(C(=O)Nc5nc6ccccc6s5)c4C3)ccc2-c2cnn(CC3CCCCC3)c2C)c1 [I-190],,
